Data published in patent US20020045595A1, “N6 heterocyclic 8-modified adenosine derivatives” (priority 1999, published 2002).

What was measured:
A1 AdoR = target: T1, A1 AdoR (Mesocricetus auratus, UniProt A0A1U8BVR4); test: A1-agonist stimulated [35S]GTPγS binding assay, DDT1 membranes; format: biochemical, hamster; conditions: [35S]GTPγS binding normalized to the full agonist CPA
T1 construct: endogenous in cells; host or cells: DDT1 (DDT) hamster vas deferens smooth muscle cells, membrane preparation
T1 sequence (A0A1U8BVR4 1-326): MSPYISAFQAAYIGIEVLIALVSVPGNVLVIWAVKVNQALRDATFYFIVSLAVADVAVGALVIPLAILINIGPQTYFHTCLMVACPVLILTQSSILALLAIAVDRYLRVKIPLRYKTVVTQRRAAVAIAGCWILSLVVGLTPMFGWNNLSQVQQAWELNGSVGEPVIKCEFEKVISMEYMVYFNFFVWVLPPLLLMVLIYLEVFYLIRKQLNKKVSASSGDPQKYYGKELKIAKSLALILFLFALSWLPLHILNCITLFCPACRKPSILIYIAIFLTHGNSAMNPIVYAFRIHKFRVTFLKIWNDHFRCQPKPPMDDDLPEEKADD
Procedure: (§1) DDT cells (hamster vas deferens smooth muscle cell line) were grown as monolayers in petri dishes using Dulbecco's Modified Eagle's Medium (DMEM) containing 2.5 μg ml^−1 amphotericin B, 100 U ml^−1 penicillin G, 0.1 mg ml^−1 streptomycin sulfate and 5% fetal bovine serum in a humidified atmosphere of 95% air and 5% CO2. Cells were subcultured twice weekly by dispersion in Hank's Balanced Salt Solution (HBSS) without the divalent cations and containing 1 mM EDTA. The cells were then seeded in growth medium at a density of […] per plate and experiments were performed 4 days later at approximately one day preconfluence.
Attached cells were washed twice with HBSS (2×10 ml), scraped free of the plate with the aid of a rubber policeman in 5 ml of 50 mM Tris-HCl buffer pH 7.4 at 4° C. and the suspension homogenized for 10 s. The suspension was then centrifuged at 27,000 x g for 10 min. The pellet was resuspended in homogenization buffer by vortexing and centrifuged as described above. The final pellet was resuspended in 1 vol of 50 mM Tris-HCl buffer pH 7.4 containing 5 mM MgCl2 for A1 AdoR assays. For the [^35S]GTPγS binding assay the final pellet was resuspended in 50 mM Tris-HCl pH 7.4 containing 5 mM MgCl2, 100 mM NaCl and 1 mM dithiothreitol. This membrane suspension was then placed in liquid nitrogen for 10 min, thawed and used for assays. The protein content was determined with a Bradford™ Assay Kit using bovine serum albumin as standard.
A1-agonist stimulated [^35S] GTPγS binding was determined by a modification of the method described by Giersckik et al. (1991) and Lorenzen et al. (1993). […] Nonspecific binding was determined by the addition of 10 μM GTPγS. […] Previous reports have shown that agonist stimulated [^35S]GTPγS binding was dependent on the presence of GDP (Gierschik et al., 1991; Lorenzen et al., 1993; Traynor & Nahorski, 1995). […] In saturation experiments, 0.5 nM [^35S]GTPγS was incubated with 0.5-1000 nM GTPγS. At the end of the incubation, each suspension was filtered and the retained radioactivity determined as described above.

[1] = test system: A1 adenosine receptor (DDT1 cells); test: cAMP assay (SPA) in DDT1 cells with forskolin; format: cell-based, hamster; conditions: 5 μM forskolin; for cAMP: rolipram 50 μM, normalized to the full agonist CPA
Procedure: as §1
A scintillation proximity assay (SPA) using rabbit antibodies directed at cAMP using an added tracer of adenosine 3′,5′-cyclic phosphoric acid 2′-O-succinyl-3-[^125I] iodotyrosine methyl ester and fluoromicrospheres containing anti-rabbit specific antibodies as described by Amersham Pharmacia Biotech (Biotrak cellular communication assays). Briefly, DDT1 cells were cultured in clear bottomed 96 well microtiter plates with opaque wells at concentrations between 10^4 to 10^6 cells per well in 40 μl of HBSS at 37° C. (5% CO2 and 95% humidity). The partial or full A1 agonists (5 μl )of this invention were incubated at various concentrations with the DDT1 cells in the presence of rolipram (50 μM), and 5 μM forskolin for 10 min at 37° C. The cells were immediately lysed by treatment 5 μl of 10% dodecyltrimethylammonium bromide followed by shaking using microplate shaker. After incubation of the plate for 5 minutes, an immunoreagent solution (150 μl containing equal volumes of tracer, antiserum, and SPA fluorospheres) was added to each well followed by sealing the plate. After 15-20 h at 23° C., the amount of bound [^125I] cAMP to the fluoromicrospheres was determined by counting in a microtitre plate scintillation counter for 2 minutes. Comparison of counts with standard curves generated for cAMP using a similar protocol afforded the cAMP present after cell lysis.

A1 receptor = target: T2, A1 receptor (Sus scrofa, UniProt I3LEN5); test: Competitive binding assay, pig striatum membranes, [3H]CPX; conditions: pig striatum membrane prep, antagonist [3H]CPX 2 nM
T2 sequence (I3LEN5 1-326): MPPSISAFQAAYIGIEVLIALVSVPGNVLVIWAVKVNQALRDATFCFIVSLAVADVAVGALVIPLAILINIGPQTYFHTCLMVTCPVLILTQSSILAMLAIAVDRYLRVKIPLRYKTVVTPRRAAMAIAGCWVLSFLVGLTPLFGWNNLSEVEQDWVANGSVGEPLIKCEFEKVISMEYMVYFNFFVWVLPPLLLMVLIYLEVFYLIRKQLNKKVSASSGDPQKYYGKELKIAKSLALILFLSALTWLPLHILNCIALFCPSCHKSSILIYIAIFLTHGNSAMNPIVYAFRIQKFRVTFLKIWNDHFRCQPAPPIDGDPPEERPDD
Procedure: Pig striatum were prepared by homogenation in 50 mM Tris buffer ( 5x volume of tissue mass pH=7.4). After centrifugation at 19,000 rpm for 25 minutes at 4° C., the supernatant was discarded, and the process was repeated twice. Compositions of this invention were assayed to determine their affinity for the A1 receptor in a pig striatum membrane prep or a DDT1 membrane prep. Briefly, 0.2 mg of pig striatal membranes or DDT1 cell membranes were treated with adenosine deaminase and 50 mM Tris buffer (pH=7.4) followed by mixing. To the pig membranes was added 2 μL of serially diluted DMSO stock solution of the compounds of this invention at concentrations ranging from 100 microM to 10 nM. The control received 2 microL of DMSO alone, then the antagonist [^3H] 8-cyclopentylxanthine (CPX) for pig striatum or the agonist [3H] 2-chloro-6-cyclopentyladenosine (CCPA) for DDT1 membranes in Tris buffer (50 mM, pH of 7.4) was added to achieve a final concentration of 2 nM. After bation at 23 C. for 2 h, then the solutions were filtered using a membrane harvester using iple washing of the membranes (3 x). The filter disks were counted in scintillation cocktail rding the amount of displacement of tritiated CPX or by the competitive binding ositions of this invention. Greater than a 5 point curve was used to generate Ki's and the er of experiments is indicated in the column marked in Table 1, below: […]

Row | Compound | GIPγS (A1 AdoR) [%] | Ki (A1 receptor) [nM] | cAMP [1] [%] | forskolin induced cAMP generation [1]
1 | CC(C)Nc1nc2c(N[C@@H]3CCOC3)ncnc2n1[C@@H]1O[C@H](CO)[C@@H](O)[C@H]1O [Compound 11, 2-{6-[((3 R)oxolan-3-yl)amino]-8-[(methylethyl)amino]purin-9-yl}(4 S,2 R,3 R,5 R)-5-(hydroxymethyl)oxolane-3,4-diol] | 68 | – | 37 | –
2 | OC[C@H]1O[C@@H](n2c(NCc3ccccc3)nc3c(N[C@@H]4CCOC4)ncnc32)[C@H](O)[C@@H]1O [Compound 10, 2-{6-[((3 R)oxolan-3-yl)amino]-8-[benzylamino]purin-9-yl}(4 S,2 R,3 R,5 R)-5-(hydroxymethyl)oxolane-3,4-diol] | – | 7470 | – | –
3 | CCCNc1nc2c(N[C@@H]3CCOC3)ncnc2n1[C@@H]1O[C@H](CO)[C@@H](O)[C@H]1O [Compound 8, 2-{6-[((3 R)oxolan-3-yl)amino]-8-(propylamino)purin-9-yl}(4 S,2 R,3 R,5 R)-5-(hydroxymethyl)oxolane-3,4-diol] | – | 1040 | – | –
4 | CCNc1nc2c(N[C@@H]3CCOC3)ncnc2n1[C@@H]1O[C@H](CO)[C@@H](O)[C@H]1O [Compound 5, 2-{6-[((3 R)oxolan-3-yl)amino]-8-(ethylamino)purin-9-yl}(4 S,2 R,3 R,5 R)-5-(hydroxymethyl)oxolane-3,4-diol] | 89 | 137 | – | –
5 | OC[C@H]1O[C@@H](n2cnc3c(NC4CCCC4)ncnc32)[C@H](O)[C@@H]1O [CPA, N-6-cyclopentyladenosine, reference compound] | – | – | 100 | back to basal levels

Continued, in another order:

Row | GIPγS (A1 AdoR) [%] | Ki (A1 receptor) [nM] | Compound | cAMP [1] [%] | forskolin induced cAMP generation [1]
6 | – | 799 | CNc1nc2c(NC3CCOC3)ncnc2n1C1OC(CO)C(O)C1O (stereo not drawn) [Compound 7] | – | –
7 | – | 2840 | CCCCNc1nc2c(N[C@@H]3CCOC3)ncnc2n1[C@@H]1O[C@H](CO)[C@@H](O)[C@H]1O [Compound 9, 2-{6-[((3 R)oxolan-3-yl)amino]-8-(butylamino)purin-9-yl}(4S,2 R,3 R,5 R)-5-(hydroxymethyl)oxolane-3,4-diol] | – | –
8 | 77 | – | C=CCNc1nc2c(N[C@@H]3CCOC3)ncnc2n1[C@@H]1O[C@H](CO)[C@@H](O)[C@H]1O [Compound 12, 2-{6-[((3 R)oxolan-3-yl)amino]-8-(prop-2-enylamino)purin-9-yl}(4 S,2 R,3 R,5 R)-5-(hydroxymethyl)oxolane-3,4-diol] | 42 | –
